Like-named read-outs stand apart in the source and are kept apart here.
Type: in vivo, SD rats
Method: A subchronic toxicity study was performed for PP2S. Female and male rats were divided into a control group (0 mg/kg/day, n = 15), a low-dose group (167 mg/kg/day, n = 10), a medium-dose group (500 mg/kg/day, n = 10), and a high-dose group (1,500 mg/kg/day, n = 15), respectively. Thus, there were a total of 8 groups. The drug was administered by oral gavage at 10 mL/kg body weight daily for 4 weeks. Five animals each in the control and high-dose groups continued their treatments for 2 more weeks. Clinical symptoms were observed, and body weight was measured during the test period for a total of 6 weeks; 0.5% methyl cellulose 1,500 cP (Sigma, USA) in water for injection (JW Pharmaceutical, Korea) was used as a vehicle. Control animals were treated with only the same volume of the vehicle.
Histopathological examination was performed while performing a 4-week repeated oral toxicity study for PP2S. Organs and tissues from all animals subjected to autopsy were removed and fixed in 10% neutral buffered formalin. Among them, testes, eyeballs and optic nerve were fixed in Davidson's fixative and then in 10% neutral buffered formalin. For organs/tissues subjected to histopathological examination, specimens were prepared according to the histopathological specimen preparation SOP. For histopathological examination, organs and tissues of all subjects in the control group and the high-dose group, and macroscopically observed subjects in the low-dose group were examined. […] In addition, all other changes observed in histopathological examination were judged to be spontaneous or accidental. Those not specifically observed for all groups by organ were marked with a 'dash' symbol. Grade 1, minimal; Grade 2, slight; Grade 3, moderate; Grade 4, severe.

[1] = female, G4 1,500 mg/kg, recovery period, n=5
[2] = male, G2 167 mg/kg, dosing period, n=10
[3] = male, G3 500 mg/kg, dosing period, n=10
[4] = male, G4 1,500 mg/kg, dosing period, n=10
[5] = male, G4 1,500 mg/kg, recovery period, n=5

CCCCOc1ccc2cc(CN3C(=O)CC[C@H]3C(=O)OC)c3cc(OC)c(OC)cc3c2c1 [PP2S, Methyl (S)-1-((3-butoxy-6,7-dimethoxyphenanthren-9-yl)methyl)-5-oxopyrrolidine-2-carboxylate]
7: Kidney: Infiltrate, inflammatory cell, interstitium, Grade 1, no. of animals [4]
2: Liver: Fatty change, sporadic/periportal, Grade 1, no. of animals [1] | Thyroid gland: Ultimobranchial cyst, Presence, no. of animals [1] | Lung including bronchi: Infiltrate, mononuclear cell, alveolar, focal, Grade 1, no. of animals [4] | Prostate: Infiltrate, inflammatory cell, interstitium, Grade 1, no. of animals [4] | Thyroid gland: Ultimobranchial cyst, Presence, no. of animals [4] | Liver: Fatty change, sporadic/periportal, Grade 1, no. of animals [5]
0: Kidney: Mineralization, medulla, Grade 1, no. of animals [1] | Liver: Extramedullary hematopoiesis, Grade 1, no. of animals [1] | Liver: Fatty change, sporadic/periportal, Grade 2, no. of animals [1] | Liver: Infiltrate, mononuclear cell, focal, Grade 2, no. of animals [1] | Lung including bronchi: Alveolar macrophage aggregation, focal, Grade 1, no. of animals [1] | Pituitary gland: Cyst, pars nervosa, Presence, no. of animals [1] | Prostate: Infiltrate, inflammatory cell, interstitium, Grade 1, no. of animals [1] | Salivary gland (parotid): Focus, hypertrophic, basophilic, focal, Grade 1, no. of animals [1] | Submandibular lymph node: Increased, plasma cell, Grade 2, no. of animals [1] | Adrenal gland: Vacuolation, cortical, diffuse, Grade 1, no. of animals [2] | Adrenal gland: Vacuolation, cortical, diffuse, Grade 2, no. of animals [2] | Epididymis: Infiltrate, inflammatory cell, interstitum, Grade 1, no. of animals [2] | Eye: Dysplasia, retina, focal, Grade 1, no. of animals [2] | Harderian gland: Infiltrate, inflammatory cell, focal, Grade 1, no. of animals [2] | Kidney: Basophilia, tubule, cortex, Grade 1, no. of animals [2] | Kidney: Cast, hyaline, cortex, Grade 1, no. of animals [2] | Kidney: Hydronephrosis, unilateral, Grade 3, no. of animals [2] | Kidney: Infiltrate, inflammatory cell, interstitium, Grade 1, no. of animals [2] | Kidney: Infiltrate, inflammatory cell, interstitium, Grade 2, no. of animals [2] | Kidney: Mineralization, cortex, Grade 1, no. of animals [2] | Kidney: Mineralization, corticomedullary junction, Grade 1, no. of animals [2] | Kidney: Mineralization, medulla, Grade 1, no. of animals [2] | Liver: Extramedullary hematopoiesis, Grade 1, no. of animals [2] | Liver: Fatty change, sporadic/periportal, Grade 1, no. of animals [2] | Liver: Fatty change, sporadic/periportal, Grade 2, no. of animals [2] | Liver: Infiltrate, mononuclear cell, focal, Grade 1, no. of animals [2] | Liver: Infiltrate, mononuclear cell, focal, Grade 2, no. of animals [2] | Lung including bronchi: Alveolar macrophage aggregation, focal, Grade 1, no. of animals [2] | Lung including bronchi: Infiltrate, mononuclear cell, alveolar, focal, Grade 1, no. of animals [2] | Pituitary gland: Cyst, pars nervosa, Presence, no. of animals [2] | Prostate: Infiltrate, inflammatory cell, interstitium, Grade 1, no. of animals [2] | Salivary gland (parotid): Focus, hypertrophic, basophilic, focal, Grade 1, no. of animals [2] | Spleen: Pigmentation, Grade 1, no. of animals [2] | Thyroid gland: Ectopic thymus, Presence, no. of animals [2] | Thyroid gland: Ultimobranchial cyst, Presence, no. of animals [2] | Adrenal gland: Vacuolation, cortical, diffuse, Grade 1, no. of animals [3] | Adrenal gland: Vacuolation, cortical, diffuse, Grade 2, no. of animals [3] | Epididymis: Infiltrate, inflammatory cell, interstitum, Grade 1, no. of animals [3] | Eye: Dysplasia, retina, focal, Grade 1, no. of animals [3] | Harderian gland: Infiltrate, inflammatory cell, focal, Grade 1, no. of animals [3] | Kidney: Basophilia, tubule, cortex, Grade 1, no. of animals [3] | Kidney: Cast, hyaline, cortex, Grade 1, no. of animals [3] | Kidney: Hydronephrosis, unilateral, Grade 3, no. of animals [3] | Kidney: Infiltrate, inflammatory cell, interstitium, Grade 1, no. of animals [3] | Kidney: Infiltrate, inflammatory cell, interstitium, Grade 2, no. of animals [3] | Kidney: Mineralization, cortex, Grade 1, no. of animals [3] | Kidney: Mineralization, corticomedullary junction, Grade 1, no. of animals [3] | Kidney: Mineralization, medulla, Grade 1, no. of animals [3] | Liver: Extramedullary hematopoiesis, Grade 1, no. of animals [3] | Liver: Fatty change, sporadic/periportal, Grade 1, no. of animals [3] | Liver: Fatty change, sporadic/periportal, Grade 2, no. of animals [3] | Liver: Infiltrate, mononuclear cell, focal, Grade 1, no. of animals [3] | Liver: Infiltrate, mononuclear cell, focal, Grade 2, no. of animals [3] | Lung including bronchi: Alveolar macrophage aggregation, focal, Grade 1, no. of animals [3] | Lung including bronchi: Infiltrate, mononuclear cell, alveolar, focal, Grade 1, no. of animals [3] | Pituitary gland: Cyst, pars nervosa, Presence, no. of animals [3] | Prostate: Infiltrate, inflammatory cell, interstitium, Grade 1, no. of animals [3] | Salivary gland (parotid): Focus, hypertrophic, basophilic, focal, Grade 1, no. of animals [3] | Spleen: Pigmentation, Grade 1, no. of animals [3] | Submandibular lymph node: Increased, plasma cell, Grade 2, no. of animals [3] | Thyroid gland: Ectopic thymus, Presence, no. of animals [3] | Thyroid gland: Ultimobranchial cyst, Presence, no. of animals [3] | Eye: Dysplasia, retina, focal, Grade 1, no. of animals [4] | Kidney: Hydronephrosis, unilateral, Grade 3, no. of animals [4] | Kidney: Mineralization, cortex, Grade 1, no. of animals [4] | Kidney: Mineralization, corticomedullary junction, Grade 1, no. of animals [4] | Kidney: Mineralization, medulla, Grade 1, no. of animals [4] | Liver: Fatty change, sporadic/periportal, Grade 2, no. of animals [4] | Liver: Infiltrate, mononuclear cell, focal, Grade 2, no. of animals [4] | Lung including bronchi: Alveolar macrophage aggregation, focal, Grade 1, no. of animals [4] | Salivary gland (parotid): Focus, hypertrophic, basophilic, focal, Grade 1, no. of animals [4] | Spleen: Pigmentation, Grade 1, no. of animals [4] | Submandibular lymph node: Increased, plasma cell, Grade 2, no. of animals [4] | Thyroid gland: Ectopic thymus, Presence, no. of animals [4] | Adrenal gland: Vacuolation, cortical, diffuse, Grade 2, no. of animals [5] | Epididymis: Infiltrate, inflammatory cell, interstitum, Grade 1, no. of animals [5] | Eye: Dysplasia, retina, focal, Grade 1, no. of animals [5] | Harderian gland: Infiltrate, inflammatory cell, focal, Grade 1, no. of animals [5] | Kidney: Hydronephrosis, unilateral, Grade 3, no. of animals [5] | Kidney: Infiltrate, inflammatory cell, interstitium, Grade 1, no. of animals [5] | Kidney: Infiltrate, inflammatory cell, interstitium, Grade 2, no. of animals [5] | Kidney: Mineralization, cortex, Grade 1, no. of animals [5] | Kidney: Mineralization, corticomedullary junction, Grade 1, no. of animals [5] | Kidney: Mineralization, medulla, Grade 1, no. of animals [5] | Liver: Fatty change, sporadic/periportal, Grade 2, no. of animals [5] | Liver: Infiltrate, mononuclear cell, focal, Grade 2, no. of animals [5] | Lung including bronchi: Alveolar macrophage aggregation, focal, Grade 1, no. of animals [5] | Lung including bronchi: Infiltrate, mononuclear cell, alveolar, focal, Grade 1, no. of animals [5] | Pituitary gland: Cyst, pars nervosa, Presence, no. of animals [5] | Salivary gland (parotid): Focus, hypertrophic, basophilic, focal, Grade 1, no. of animals [5] | Submandibular lymph node: Increased, plasma cell, Grade 2, no. of animals [5] | Thyroid gland: Ectopic thymus, Presence, no. of animals [5]
3: Adrenal gland: Vacuolation, cortical, diffuse, Grade 1, no. of animals [4] | Kidney: Basophilia, tubule, cortex, Grade 1, no. of animals [4] | Adrenal gland: Vacuolation, cortical, diffuse, Grade 1, no. of animals [5] | Kidney: Cast, hyaline, cortex, Grade 1, no. of animals [5] | Liver: Infiltrate, mononuclear cell, focal, Grade 1, no. of animals [5] | Spleen: Pigmentation, Grade 1, no. of animals [5]
1: Lung including bronchi: Infiltrate, mononuclear cell, alveolar, focal, Grade 1, no. of animals [1] | Thyroid gland: Ectopic thymus, Presence, no. of animals [1] | Submandibular lymph node: Increased, plasma cell, Grade 2, no. of animals [2] | Adrenal gland: Vacuolation, cortical, diffuse, Grade 2, no. of animals [4] | Epididymis: Infiltrate, inflammatory cell, interstitum, Grade 1, no. of animals [4] | Harderian gland: Infiltrate, inflammatory cell, focal, Grade 1, no. of animals [4] | Kidney: Cast, hyaline, cortex, Grade 1, no. of animals [4] | Kidney: Infiltrate, inflammatory cell, interstitium, Grade 2, no. of animals [4] | Liver: Extramedullary hematopoiesis, Grade 1, no. of animals [4] | Pituitary gland: Cyst, pars nervosa, Presence, no. of animals [4] | Kidney: Basophilia, tubule, cortex, Grade 1, no. of animals [5] | Liver: Extramedullary hematopoiesis, Grade 1, no. of animals [5] | Prostate: Infiltrate, inflammatory cell, interstitium, Grade 1, no. of animals [5] | Thyroid gland: Ultimobranchial cyst, Presence, no. of animals [5]
5: Spleen: Pigmentation, Grade 1, no. of animals [1]
4: Liver: Infiltrate, mononuclear cell, focal, Grade 1, no. of animals [1] | Liver: Fatty change, sporadic/periportal, Grade 1, no. of animals [4] | Liver: Infiltrate, mononuclear cell, focal, Grade 1, no. of animals [4]

Reference: paper PMC9154192 (PLoS Biology, 2022)
